Measured values as given in patent EP4652998A1, “TREATMENT OF RECEPTOR-INTERACTING PROTEIN KINASE 1- MEDIATED DISEASE WITH ECLITASERTIB” (Technische Universität München, priority 2024, dated 2025).

Experiments:
[1] = tested on: primary human keratinocytes; assay: Cell viability assay (MTS/PMS) after cell death induction with IFN-γ + TNF-α + zVAD + SMAC; assay type: cell-based; conditions: 4 nM RIPK1 inhibitor (or higher), zVAD [20 µM] and SMAC [1 µM], 24 h, normalized to zVAD + SMAC (100 %), stimulated control 43,6 % ± 7.6 %, n=4
Experimental: (§1) Primary human keratinocytes were obtained from healthy donors by suction blister as reported before (J Allergy Clin Immunol 141, 1320-1333 e1311 (2018)) and donor characteristics are listed in Table S3. Epidermal keratinocytes were cultured in keratinocyte medium (DermaLife Basal Medium supplemented with DermaLife K LifeFactor Kit (Lifeline Cell Technology, LL-0007)) at 37 °C, 5 % CO2 and second- to third-passages were used. At 70-80 % of confluence, keratinocytes were pre-incubated for 1 h with RIPK1 inhibitor (100 nM or as indicated, SANOFI) followed by stimulation with rhIFN-γ (100 ng/ml or as indicated, R&D, #285-IF-100/CF) and rhTNF-α (100 ng/ml or as indicated, R&D, #210_TA/CF) in the presence of zVAD (20 µM, Cell Signaling, #60332), SMAC (1 µM, LC Laboratories, #B-9135) and the RIPK1 inhibitor for 24 h in keratinocyte medium without hydrocortisone.
Cell viability of cultured keratinocytes was determined using CellTiter 96® Aqueous NonRadioactive Cell Proliferation Assay (Promega, G5421) according to manufacturer's instructions. MTS/PMS reagent was used 1:6 diluted in keratinocyte medium without hydrocortisone and incubated for 1 h. Afterwards, supernatants were analysed by ELISA at 490 nm minus 700 nm as reference. To calculate the percentage of cell viability to ZS extinction values were normalized to the control stimulation zVAD + SMAC (100 %).

[2] = tested on: primary human keratinocytes; assay: Multiplex ELISA of cytokines released by keratinocytes after cell death induction; assay type: cell-based; conditions: 24 h
Experimental: as §1
Cell free supernatants derived from keratinocyte stimulation experiments or lesional TCS from LP/LE patients were analysed for 27 cytokines, chemokines and growth factors using the Bio-Plex Pro Human Cytokine 27-plex Assay (Bio-Rad Laboratories, Hercules, Calif) according to the manufacturer's recommendation.

RIPK1 = target: T1, RIPK1 (Homo sapiens, UniProt Q13546); assay: Western blot of RIPK1-pS166 autophosphorylation in keratinocytes; assay type: cell-based; conditions: RIPK1-pS166, 100 nM inhibitor, 6 h after IFN-γ [10 ng/ml] + TNF-α [10 ng/ml] + zVAD [20 µM]
T1 construct: Detection of RIPK1-pS 166 in WB analysis of primary human keratinocytes; endogenous in cells; host or cells: primary human keratinocytes from healthy donors (suction blister)
T1 sequence (Q13546 1-671): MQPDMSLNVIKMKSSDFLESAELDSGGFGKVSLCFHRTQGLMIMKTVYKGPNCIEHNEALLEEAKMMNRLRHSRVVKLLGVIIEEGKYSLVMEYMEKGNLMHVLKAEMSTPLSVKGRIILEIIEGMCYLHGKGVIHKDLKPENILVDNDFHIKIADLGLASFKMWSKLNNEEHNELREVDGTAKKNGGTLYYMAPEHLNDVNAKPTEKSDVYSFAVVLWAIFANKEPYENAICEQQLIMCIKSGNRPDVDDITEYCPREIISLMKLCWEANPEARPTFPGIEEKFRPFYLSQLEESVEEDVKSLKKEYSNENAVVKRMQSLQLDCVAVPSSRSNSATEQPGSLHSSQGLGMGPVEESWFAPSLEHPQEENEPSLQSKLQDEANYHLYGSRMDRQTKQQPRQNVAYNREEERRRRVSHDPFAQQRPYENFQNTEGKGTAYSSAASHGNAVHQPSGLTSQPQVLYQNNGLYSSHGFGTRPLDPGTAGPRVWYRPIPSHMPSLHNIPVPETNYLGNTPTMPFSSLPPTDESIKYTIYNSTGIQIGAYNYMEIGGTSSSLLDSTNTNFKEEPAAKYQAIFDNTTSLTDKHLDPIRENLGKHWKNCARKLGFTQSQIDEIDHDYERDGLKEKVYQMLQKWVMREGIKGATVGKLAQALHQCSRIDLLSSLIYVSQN
Experimental: Keratinocytes were lysed in RIPA lysis buffer (Santa Cruz) supplemented with 1 mM sodium orthovanadate, 2mM PMSF and proteinase inhibitor cocktail (1:70) according to the manufacturer's instructions.

[3] = tested on: keratinocyte skin equivalents; assay: Three-dimensional keratinocyte skin equivalents stimulated with LP/LE-TCS, secreted cytokines in supernatant; assay type: cell-based, human; conditions: 100 nM inhibitor, 72 h, relative concentration to stimulated control (ZS + LP/LE-TCS) without inhibitor, n=3
Experimental: Three-dimensional keratinocyte skin equivalents were generated as described before Arch Dermatol Res 296, 203-211 (2004)). Briefly, 3.0E^5 primary human keratinocytes were seeded in 500 µL keratinocyte medium with 1.5 mM CaCh into the insert and placed in a well containing the same medium. After two days, keratinocytes were exposed to the air-liquid interface and medium in the surrounding well was supplemented with 50 µg/mL Vitamin C. Nine days after airlift, the skin equivalents were pre-treated for 1 h with RIPK1 inhibitor (100 nM, SANOFI) followed by a stimulation with supernatant mix of lesional T cells from LP and LE patients (1: 10 diluted) in the presence of zVAD (20 µM, Cell Signaling, #60332), SMAC (1 µM, LC Laboratories, #B-9135) and the RIPK1 inhibitor for 72 h. Afterwards, membranes of the fixated skin equivalents were cut out with a scalpel, divided into two pieces, formalin fixed and embedded in paraffin. Primary human lesional T cells were isolated from freshly taken skin biopsies of LP (n=5) and LE (n=3) patients (patient characteristics see Table S 1) by emigration towards an IL-2 gradient followed by expansion with α-CD3/α-CD28 stimulation as described previously (J Invest Dermatol, (2018), Case Rep Pathol 2021, 8819560 (2021)). Supernatants of expanded lesional T cells were generated by 3-day stimulation with 0.75 µg/mL α-CD3 (pre-coated, BD Biosciences) and 0.75 µg/mL soluble α-CD28 (BD Biosciences). A mixture of all 8 lesional supernatants at equimolar ratio was used for stimulation of 3D keratinocyte skin equivalents. Concentrations of key cytokines in the supernatant mix of lesional T cells were determined by a multiplex ELISA (Biorad) and listed in Table S4. Table S4. Composition of lesional LP/LE-TCS mix. Hu = human. Cell free supernatants derived from keratinocyte stimulation experiments or lesional TCS from LP/LE patients were analysed for 27 cytokines, chemokines and growth factors using the Bio-Plex Pro Human Cytokine 27-plex Assay (Bio-Rad Laboratories, Hercules, Calif) according to the manufacturer's recommendation.

## CN1C(=O)[C@@H](NC(=O)c2nnc(Cc3ccccc3)[nH]2)COc2cccnc21 [SAR443122, 5-Benzyl-N-[(3S)-5-methyl-4-oxo-2,3-dihydropyrido[3,2-b][1,4]oxazepin-3-yl]-4H-1,2,4-triazole-3-carboxamide]
[1]
  viability: 95.1 % ± 0.8
[2]; IFN-γ + TNF-α + zVAD + SMAC, dose dependent, p=0.0050 for 100 nM, n=4
  release of IL-1β: significantly diminished the release of IL-1β to basal levels
[2]; secreted cytokines, 100 ng/ml IFN-γ + TNF-α + zVAD + SMAC, n=3
  IL-1α, IL-1RA, CXCL5, IL-8 (CXCL8), GM-CSF and CCL20: significant reduction
RIPK1
  RIPK1 autophosphorylation: efficiently blocked
[3]
  release of CCL20: 29.1 % ± 4.4
  release of II,-1RA: 48.9 % ± 18.0
  release of TNF-α: 70.3 % ± 6.3
[3]; p=0.4757
  release of IL-8: 79.8 % ± 9.6
